Test results: patent publication US20260274814A1, “THIENYL COMPOUNDS FOR THE TREATMENT OF A CENTRAL NERVOUS SYSTEM DISEASE OR DISORDER” (Coreterra Therapeutics, Inc., priority 2023, published 2026)
Where a name gives a salt, the structure may show the parent alone.

Tested on: mice
Assay: Neuropharmacological Assay (SmartCube): automated behavioral signature of compound-treated mice compared with a database of reference drug classes
Type: in vivo
Details: for minimal effective dose: Mus musculus, ip, read-out: MED; for minimal effective dose / MED: minimal effective dose: dose having 45% or more total activity in SmartCube, i.p., if only one dose tested, that dose is shown; for AD / AG / AN / AX / CE / MS / PS / SH / UK / AP / HL: SmartCube class probability, 3.0 mg/kg i.p., 15 min before test
How it was run: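 Probabilities of matching each neuropharmacological class (e.g. anxiolytic, antidepressant) come from algorithmic analysis of digitally recorded behaviour, reported for 3.0 mg/kg. Compounds were given intraperitoneally in a Pharmasolve/PEG/propylene glycol vehicle 15 min pre-test. Minimal effective dose is the lowest dose reaching 45% or more total activity.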

Row | Structure (SMILES) | minimal effective dose [mg/kg] | AD | AG | AN | AX | CE | MS | PS | SH | AP (hydrochloride, 3 mg/kg) | MED [mpk] | HL | UK (hydrochloride, 3 mg/kg) | AP | AD (hydrochloride, 3 mg/kg) | further results
1 | CNC1CCc2c(Cl)csc2C1 (single isomer, unassigned) [Compound 198, 3-chloro-N-methyl-4,5,6,7-tetrahydrobenzothiophen-6-amine hydrochloride] | < 3 | ND (^ <4%) | ND (^ <4%) | ND (^ <4%) | ND (^ <4%) | ND (^ <4%) | ND (^ <4%) | ND (^ <4%) | ND (^ <4%) | ++++ (≥74%) | – | – | – | – | – | UK: ND (^ <4%); HL (hydrochloride, 3 mg/kg): ND (^ <4%)
2 | CNC1CCc2c(Cl)csc2C1 (single isomer, unassigned) [Compound 199, 3-chloro-N-methyl-4,5,6,7-tetrahydrobenzothiophen-6-amine hydrochloride] | – | ND (^ <4%) | ND (^ <4%) | ND (^ <4%) | ND (^ <4%) | ND (^ <4%) | ND (^ <4%) | ND (^ <4%) | ND (^ <4%) | ND (^ <4%) | <3 | – | – | – | – | UK: ND (^ <4%); HL (hydrochloride, 3 mg/kg): + (≥4%)
3 | CNC1CCc2c(F)sc(C)c2C1 (single isomer, unassigned) [Compound 210, 1-fluoro-N, 3-dimethyl-4,5,6,7-tetrahydro-2-benzothiophen-5-amine hydrochloride] | 3 | ND (^ <4%) | ND (^ <4%) | ND (^ <4%) | ND (^ <4%) | ND (^ <4%) | ND (^ <4%) | ND (^ <4%) | ND (^ <4%) | + (≥4%) | – | ND (^ <4%) | +++ (≥49%) | – | – | –
4 | CNC1CCc2c(F)sc(C)c2C1 (single isomer, unassigned) [Compound 211, 1-fluoro-N, 3-dimethyl-4,5,6,7-tetrahydro-2-benzothiophen-5-amine hydrochloride] | – | ND (^ <4%) | ND (^ <4%) | ND (^ <4%) | ND (^ <4%) | ND (^ <4%) | ND (^ <4%) | ND (^ <4%) | ND (^ <4%) | ++++ (≥74%) | – | ND (^ <4%) | ND (^ <4%) | – | – | MED (hydrochloride): <3 mpk
5 | NC1CCc2sccc2C1 (single isomer, unassigned) [Compound 212, 4,5,6,7-tetrahydrobenzothiophen-5-amine hydrochloride] | 1 | – | ND (^ <4%) | ND (^ <4%) | – | – | ND (^ <4%) | ND (^ <4%) | – | – | – | ND (^ <4%) | – | + (≥4%) | +++ (≥49%) | UK: ND (^ <4%); AX (hydrochloride, 3 mg/kg): + (≥4%); CE (hydrochloride, 3 mg/kg): + (≥4%); SH (hydrochloride, 3 mg/kg): ND (^ <4%)
6 | NC1CCc2sccc2C1 (single isomer, unassigned) [Compound 213, 4,5,6,7-tetrahydrobenzothiophen-5-amine hydrochloride] | – | – | ND (^ <4%) | ND (^ <4%) | – | – | ND (^ <4%) | ND (^ <4%) | – | – | 1 | ND (^ <4%) | – | + (≥4%) | + (≥4%) | UK: ND (^ <4%); AX (hydrochloride, 3 mg/kg): +++ (≥49%); CE (hydrochloride, 3 mg/kg): ND (^ <4%); SH (hydrochloride, 3 mg/kg): + (≥4%)
7 | CNC1CCc2sc(C)cc2C1 (single isomer, unassigned) [Compound 223, N, 2-dimethyl-4,5,6,7-tetrahydrobenzothiophen-5-amine hydrochloride] | > 3 | ND (^ <4%) | ND (^ <4%) | ND (^ <4%) | ND (^ <4%) | ND (^ <4%) | ND (^ <4%) | ND (^ <4%) | ND (^ <4%) | ND (^ <4%) | – | ND (^ <4%) | ++ (≥24%) | – | – | –
8 | CNC1CCc2sc(C)cc2C1 (single isomer, unassigned) [Compound 224, N, 2-dimethyl-4,5,6,7-tetrahydrobenzothiophen-5-amine hydrochloride] | – | ND (^ <4%) | ND (^ <4%) | ND (^ <4%) | ND (^ <4%) | ND (^ <4%) | ND (^ <4%) | ND (^ <4%) | ND (^ <4%) | ++++ (≥74%) | – | ND (^ <4%) | ND (^ <4%) | – | – | MED (hydrochloride): 3 mpk
9 | CNC1CCc2c(C(F)(F)F)csc2C1 (single isomer, unassigned) [Compound 230, N-methyl-3-(trifluoromethyl)-4,5,6,7-tetrahydrobenzothiophen-6-amine hydrochloride] | 3 | – | ND (^ <4%) | ND (^ <4%) | ND (^ <4%) | ND (^ <4%) | ND (^ <4%) | ND (^ <4%) | ND (^ <4%) | – | – | ND (^ <4%) | ND (^ <4%) | ND (^ <4%) | + (≥4%) | –
10 | CNC1CCc2c(C(F)(F)F)csc2C1 (single isomer, unassigned) [Compound 231, N-methyl-3-(trifluoromethyl)-4,5,6,7-tetrahydrobenzothiophen-6-amine hydrochloride] | – | – | ND (^ <4%) | ND (^ <4%) | ND (^ <4%) | ND (^ <4%) | ND (^ <4%) | ND (^ <4%) | ND (^ <4%) | – | 3 | ND (^ <4%) | +++ (≥49%) | ND (^ <4%) | ND (^ <4%) | –
11 | CNC1CCc2scc(-c3ccccc3)c2C1 (single isomer, unassigned) [Compound 232, N-methyl-3-phenyl-4,5,6,7-tetrahydrobenzothiophen-5-amine hydrochloride] | > 3 | ND (^ <4%) | ND (^ <4%) | ND (^ <4%) | ND (^ <4%) | ND (^ <4%) | ND (^ <4%) | ND (^ <4%) | ND (^ <4%) | – | – | ND (^ <4%) | + (≥4%) | ND (^ <4%) | – | –
12 | CNC1CCc2scc(-c3ccccc3)c2C1 (single isomer, unassigned) [Compound 233, N-methyl-3-phenyl-4,5,6,7-tetrahydrobenzothiophen-5-amine hydrochloride] | – | ND (^ <4%) | ND (^ <4%) | ND (^ <4%) | ND (^ <4%) | ND (^ <4%) | ND (^ <4%) | ND (^ <4%) | ND (^ <4%) | – | >3 | ND (^ <4%) | ND (^ <4%) | ND (^ <4%) | – | –
13 | CNC1CCc2scc(CN)c2C1 (single isomer, unassigned) [Compound 236, 3-(aminomethyl)-N-methyl-4,5,6,7-tetrahydrobenzothiophen-5-amine dihydrochloride] | > 3 | ND (^ <4%) | ND (^ <4%) | ND (^ <4%) | ND (^ <4%) | ND (^ <4%) | ND (^ <4%) | ND (^ <4%) | ND (^ <4%) | – | – | ND (^ <4%) | – | ND (^ <4%) | – | UK (dihydrochloride, 3 mg/kg): ND (^ <4%)
14 | CNC1CCc2scc(CN)c2C1 (single isomer, unassigned) [Compound 237, 3-(aminomethyl)-N-methyl-4,5,6,7-tetrahydrobenzothiophen-5-amine dihydrochloride] | – | ND (^ <4%) | ND (^ <4%) | ND (^ <4%) | ND (^ <4%) | ND (^ <4%) | ND (^ <4%) | ND (^ <4%) | ND (^ <4%) | – | >3 | ND (^ <4%) | – | ND (^ <4%) | – | UK (dihydrochloride, 3 mg/kg): + (≥4%)
15 | CC1(N)CCc2c(C(F)(F)F)csc2C1.Cl (single isomer, unassigned) [Compound 241, 6-methyl-3-(trifluoromethyl)-5,7-dihydro-4H-benzothiophen-6-amine hydrochloride] | 3 | – | ND (^ <4%) | ND (^ <4%) | ND (^ <4%) | ND (^ <4%) | ND (^ <4%) | ND (^ <4%) | ND (^ <4%) | – | – | ND (^ <4%) | ++++ (≥74%) | ND (^ <4%) | + (≥4%) | –
16 | CC1(N)CCc2c(C(F)(F)F)csc2C1.Cl (single isomer, unassigned) [Compound 242, 6-methyl-3-(trifluoromethyl)-5,7-dihydro-4H-benzothiophen-6-amine hydrochloride] | – | – | ND (^ <4%) | ND (^ <4%) | ND (^ <4%) | ND (^ <4%) | ND (^ <4%) | ND (^ <4%) | ND (^ <4%) | – | 3 | ND (^ <4%) | ND (^ <4%) | ND (^ <4%) | +++ (≥49%) | –
